Measurements as given in PubChem BioAssay AID2765 (Broad Institute, 2010).
Active and inactive are the calls of the source.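 The calls were made as follows: active = half-maximal concentration for the rise in caspase light signal at or below ten times the top tested dose; inconclusive = flat fit between 30% and 70% activity, or unreliable curve fit; inactive = the rest.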

Test system: MEF A1-2A-BIM cells, caspase 3/7 luminescence, 3 h
Test: caspase activation in A1-2A-BIM MEF cells, dose response, A1 inhibitor project, cell-based, luminescence, retest (AID 2765)

SMILES | EC50
CCCCCCC(=O)Nc1cc2c(C)cc(=O)oc2cc1C | > 35 µM (inactive)
Cc1ccc(C(=O)NCC(=O)OC(C)C(=O)Nc2ccc(N(C)C)cc2)s1 (stereo not drawn) | > 35 µM (inactive)
Cc1cc(C)c(C(=O)COC(=O)C2CCN(c3ccc(C(F)(F)F)cn3)CC2)cc1C | > 35 µM (inactive)
CN1C2CCC1/C(=C/c1ccccn1)C(=O)/C2=C\c1ccccn1 | > 35 µM (inactive)
CCOC(=O)CCCCCNC(=O)c1ccc(F)cc1F | > 35 µM (inactive)
Cn1ccc(=NC=C(C#N)C#N)c2ccccc21 | > 35 µM (inactive)
COc1ccc(C=C2C=C(C(C)(C)C)C(=O)C(C(C)(C)C)=C2)cc1OC | 5.77 µM
CC12CCCCC1NS(=O)(=O)OC2 (stereo not drawn) | > 35 µM (inactive)
CCN(C(=O)CCN1C(=O)c2ccccc2S1(=O)=O)c1ccccc1 | > 35 µM (inactive)
Cc1ccc(S(=O)(=O)NCCN2CCOCC2)cc1 | > 35 µM (inactive)
O=C(CN1C(=O)c2ccccc2S1(=O)=O)NCCc1ccccc1 | > 35 µM (inactive)
O=C(c1cc2sccc2n1Cc1ccc(F)cc1)N1CCCc2ccccc21 | > 35 µM (inactive)
O=C1C=CC(=O)N1c1cccc(-c2ccccc2)c1 | > 35 µM (inactive)
CCN(CC)C1CCN(C(=O)c2ccc(OC3CCN(CCc4ccccc4)CC3)cc2)C1 (stereo not drawn) | > 35 µM (inactive)
COc1ccc(C(=O)Nc2cccc3c2CCCC3)cc1 | > 35 µM (inactive)
Cc1ccc(OCCC(=O)Nc2ccccc2C(=O)NC2CC2)cc1 | > 35 µM (inactive)
CN(C)Cc1ccc(O)c(CCc2ccccc2)n1 | > 35 µM (inactive)
CC1(C)c2cc(O)ccc2OC1N1CCOCC1 (stereo not drawn) | > 35 µM (inactive)
CC(C)OC(=O)CN1C(=O)S/C(=C/c2ccc(N3CCCCC3)o2)C1=O | > 35 µM (inactive)
Cc1cc(=O)oc2c1c(C)nn2-c1ccc(Cl)cc1 | > 35 µM (inactive)
O=P(C(c1c[nH]c2ccccc12)N1CCOCC1)(N1CCOCC1)N1CCOCC1 (stereo not drawn) | > 35 µM (inactive)
Cc1ccc(C(O)(CCN2CCCCC2)c2ccccc2)cc1 (stereo not drawn) | > 35 µM (inactive)
CCN(CC(=O)NCc1ccc(Cl)cc1)S(=O)(=O)c1ccc(F)cc1 | > 35 µM (inactive)
COc1ccc(C(=O)Nc2ccc(S(=O)(=O)NC(C)=O)cc2)cc1[N+](=O)[O-] | > 35 µM (inactive)
COc1ccc2c(c1)CCc1c(C(=O)Nc3cc(C)n(Cc4ccc(Cl)cc4)n3)noc1-2 | 15 µM

SMILES | EC50
CCOC(=O)/C(=C\c1cccnc1)C(=O)c1cc(C(C)=O)c(Nc2ccccc2)s1 | > 35 µM (inactive)
COC(=O)c1ccc2c(c1)C(C)(C)C(/C=C/c1ccccc1O)=[N+]2C | 12.6 µM
c1ccc(Cc2nn3c(Cn4nnc5ccccc54)nnc3s2)cc1 | > 35 µM (inactive)
O=C1N/C(=C/c2ccc(N3CCOCC3)o2)C(=O)N1c1cccc(Cl)c1 | > 35 µM (inactive)
O=C(N/N=C/c1ccc(N2CCCCC2)o1)c1ccccc1[N+](=O)[O-] | > 35 µM (inactive)
COc1ccc(C(=O)NCc2cccnc2)cc1Br | > 35 µM (inactive)
CCNC(=O)/C(C#N)=C/c1c(N2CCN(C)CC2)nc2c(C)cccn2c1=O | > 35 µM (inactive)
Cc1nc2sc(C(=O)O)c(N)c2c2c1COC(C)(C)C2 | > 35 µM (inactive)
O=[N+]([O-])c1ccc(CN2CCOCCOCCOCC2)cc1 | > 35 µM (inactive)
Cc1c(Cl)cccc1NC(=O)CN1CCN(CCN=CC2=C(O)CC(c3ccccc3)CC2=O)CC1 (stereo not drawn) | > 35 µM (inactive)
COc1cc(-c2cc(-c3ccccc3)nc(SCC(=O)Nc3nccs3)c2C#N)cc(OC)c1OC | > 35 µM (inactive)
O=C(CCCOc1ccc(Cl)cc1Cl)Nc1ncccn1 | > 35 µM (inactive)
O=C(CS(=O)c1ccc(C(F)(F)F)cc1[N+](=O)[O-])Oc1ccccc1 (stereo not drawn) | > 35 µM (inactive)
Cc1ccc(/C=C/C(=O)Nc2sc(C)c(C)c2C(=O)OC(C)C)o1 | > 35 µM (inactive)
CCOC(=O)c1ccc(-c2ccc(/C=N/NC(=O)CN(c3cccc(C)c3)S(C)(=O)=O)o2)cc1 | 24 µM
CONC(=O)c1cc(OCC(F)(F)F)ccc1OCC(F)(F)F | > 35 µM (inactive)
C#CC(=O)N(c1cc(OC)ccc1OC)C(C(=O)NC1CCCC1)c1cccs1 (stereo not drawn) | > 35 µM (inactive)
COc1ccc(-c2ccc3c(c2)S(=O)(=O)c2cccc(C(=O)NC[C@@H]4CCCO4)c2C3=O)cc1OC | > 35 µM (inactive)
O=C(c1ccccc1)N1CCN(S(=O)(=O)c2ccccc2)CC1 | > 35 µM (inactive)
Cc1nc(NN)c2c3c(sc2n1)COC(C)(C)C3 | > 35 µM (inactive)
NS(=O)(=O)c1ccc(CCNC(=O)CN2CCN(S(=O)(=O)c3ccccc3F)CC2)cc1 | > 35 µM (inactive)
CC(=O)OC[C@]12CC[C@H]3[C@@](C)(CC[C@H]4C(C)(C)CCC[C@]34C)[C@@H]1C[C@@H](C1=CC(=O)O[C@@H]1OC(C)=O)O2 | 4.98 µM
CCOC(=O)C(Cc1ccc(N)cc1)N1C(=O)c2ccccc2C1=O (stereo not drawn) | > 35 µM (inactive)
CCc1cccc(C)c1Nc1nc2ccccc2n2cnnc12 | > 35 µM (inactive)
Cc1cc(Cl)ccc1OCC(=O)OCC(=O)c1c(N)n(C)c(=O)n(C)c1=O | > 35 µM (inactive)

SMILES | EC50
O=C(c1ccco1)N1CCCN(Cc2nc(-c3ccc4c(c3)OCO4)no2)CC1 | > 35 µM (inactive)
NC(=O)OCCCc1ccccc1 | > 35 µM (inactive)
CC(=O)c1ccc(S(=O)(=O)N2CCCCC2C(=O)O)cc1 (stereo not drawn) | > 35 µM (inactive)
Cc1cc(Br)c2c(c1)C1(OCCO1)C(=O)N2 | > 35 µM (inactive)
COC(=O)Cc1csc(/N=C/c2c(O)n(-c3cccc(C(F)(F)F)c3)c(=O)c3ccccc23)n1 | 5.7 µM
O=C(NCc1ccc(/C=N\NC(=O)C(=O)Nc2ccccc2Br)o1)C(=O)Nc1ccccc1 | > 35 µM (inactive)
O=C(Cn1[nH]c(=O)c2ccccc2c1=O)OCC(=O)N1CCc2ccccc2C1 | > 35 µM (inactive)
CCOc1ccc2nc(NCCNC(=O)Nc3cccc(C)c3)c(C#N)cc2c1 | 35.7 µM
COc1cccc(/C=N/NC(=O)c2cc3cc([N+](=O)[O-])ccc3s2)c1O | > 35 µM (inactive)
CCOC(=O)CSc1nnc(Cc2ccc(OC)cc2)n1-c1ccccc1 | > 35 µM (inactive)
Cc1ccc(NC(=O)CCN2CCOCC2)cc1C | > 35 µM (inactive)
CC(=O)c1cccc(CN2CCN(CCc3ccccc3)C(CCO)C2)c1 (stereo not drawn) | > 35 µM (inactive)
COc1cccc(C(=O)C(C#N)=C(SC)SC)c1 | > 35 µM (inactive)
O=C(CSc1ccc2ccccc2c1)NCCc1ccc(O)c(O)c1 | > 35 µM (inactive)
CCSc1ccc(-c2nn(-c3ccccc3)cc2/C=C(/C#N)C(=O)NC)cc1 | > 35 µM (inactive)
CCOC(=O)CN1C(=O)CC(c2ccc([N+](=O)[O-])cc2)C1=O (stereo not drawn) | > 35 µM (inactive)
COc1ccccc1-c1cc(C(F)(F)F)nc(S(=O)(=O)CCCC(=O)N2CCOCC2)n1 | 28.7 µM
Cc1ccc(NC(=O)CCN2CC(C)OC(C)C2)cc1C (stereo not drawn) | > 35 µM (inactive)
Cn1nnnc1Sc1ncnc2scc(-c3cccc4c3sc3ccccc34)c12 | > 35 µM (inactive)
Cc1ccccc1OCCOC(=O)c1c(-c2ccccc2)noc1C | > 35 µM (inactive)
CC(C)=C1C2C=CC1C1C(=O)N(c3ccc4c(c3)OCO4)C(=O)C21 (stereo not drawn) | > 35 µM (inactive)
Cc1coc(NC(=O)CSc2nc(-c3ccc(Cl)cc3)cc(C(F)(F)F)c2C#N)n1 | > 35 µM (inactive)
O=C(CSc1cccc[n+]1[O-])NC1CCCCC1 | > 35 µM (inactive)
COc1ccccc1OCC(=O)NNC(=O)c1ccc(F)c(S(=O)(=O)N2CCOCC2)c1 | > 35 µM (inactive)
Cc1ccc(OCCC(=O)Nc2ccc(C)c(F)c2)cc1 | > 35 µM (inactive)

SMILES | EC50
O=C(Nc1ccc2oc(-c3ccccc3)nc2c1)c1ccccc1F | > 35 µM (inactive)
C=C(C(=O)Oc1ccccc1C(C)(C)C)c1ccccc1 | 15.9 µM
O=C(O)CCC(=NNC(=O)c1cccc(S(=O)(=O)N2CCCCC2)c1)c1ccccc1 | > 35 µM (inactive)
O=C(CSc1nccc(=O)[nH]1)Nc1ccccc1Sc1ccccc1 | > 35 µM (inactive)
O=C(Nc1ccc(Br)cc1C(=O)O)c1ccc2c(c1)C(=O)N(Cc1ccccc1)C2=O | > 35 µM (inactive)
CCOC(=O)[C@@H]1[C@H]2COc3ccc(Br)cc3[C@H]2N2C(=O)N(c3ccc(Cl)cc3)C(=O)[C@@]12C | > 35 µM (inactive)
COCCCn1cc(C(=O)c2cc(OC)ccc2OCC(=O)N2CCCCC2C)cc(C#N)c1=O (stereo not drawn) | > 35 µM (inactive)
CCOC(=O)c1c(C)nc2sc(C(=O)Nc3ccc(C(C)=O)cc3)c(N)c2c1-c1ccc(OC)cc1 | > 35 µM (inactive)
CCCNC(=O)c1ccc2c(=O)c(O)c(-c3ccsc3)[nH]c2c1 | > 35 µM (inactive)
COc1ccc(S(=O)(=O)N(CC(=O)NCCSc2ccccn2)c2ccccc2)cc1 | > 35 µM (inactive)
O=C(CSc1nc2ncc(Br)cc2[nH]1)c1ccc([N+](=O)[O-])cc1 | > 35 µM (inactive)
O=C(NC(Cc1ccccc1)C(=O)N1CCCCCC1)c1ccccc1 (stereo not drawn) | > 35 µM (inactive)
COc1ccccc1C/C(N)=N/OC(=O)c1cccc([N+](=O)[O-])c1 | > 35 µM (inactive)
NS(=O)(=O)c1ccc(S(=O)(=O)c2ccccc2)nc1 | > 35 µM (inactive)
CCN1C(=O)/C(=C2\Sc3ccccc3N2CC)OC1=S | > 35 µM (inactive)
CC(=O)OC[C@]12CC[C@H]3[C@@](C)(CC[C@H]4C(C)(C)CCC[C@]34C)[C@@H]1C[C@H](C1=CC(=O)O[C@H]1OC(C)=O)O2 | 3.27 µM
O=C(CNc1cccc(S(=O)(=O)N2CCCC2)c1)Nc1cccc(C(F)(F)F)c1 | > 35 µM (inactive)
CC1CCCCC12NC(=O)N(CC(=O)c1ccc(Cl)s1)C2=O (stereo not drawn) | > 35 µM (inactive)
CSC(SC)=C(C#N)C(=O)c1ccccc1 | > 35 µM (inactive)
CCOC(=O)/C(=C\c1ccc(OC(F)F)cc1)C1=Nn2c(nnc2-c2ccc(Cl)cc2)SC1 | 6.18 µM
COc1cc2cnc(-c3ccccc3)c(-c3cccc(C(F)(F)F)c3)c2cc1OC | > 35 µM (inactive)
N#CCn1nnc(-c2ccc3c(c2)OCO3)n1 | > 35 µM (inactive)
O=C(/C=C/c1cccc(Cl)c1)c1ccc([N+](=O)[O-])o1 | > 35 µM (inactive)
